Assays:
Assay type in all cases: in vivo
[1] = system: hair growth at depilated back portions of mice (C57BL/6); assay: Hair growth after subcutaneous injection in depilated mice; conditions: 3% solution, subcutaneous injection 50 μL every 3-4 days, seven times
Method: According to one embodiment, sodium valproate (VPA) is administered to subjects via subcutaneous injection and then tested for its effect for promoting hair growth. Seven week aged female mice (C57BL/6) are subjected to depilation at their back portions. Next, 3% sodium valproate solution is administered via subcutaneous injection to the left side of each depilated back portion in a unit dose of 50 μL at an interval of 3-4 days seven times in total. Then, the degree of hair growth is observed 1, 16 and 30 days after starting the test. In the test of FIG. 1, sodium valproate is injected subcutaneously to the left portion (marked by a circle) of the back of each mouse.

[2] = system: hair growth at depilated back portions of mice (C57BL/6); assay: Hair growth and hair weight after oral administration in depilated mice; conditions: for hair growth as compared to the control (FIG. 2): 0.2 g/kg everyday for 5 weeks
Method: According to one embodiment, sodium valproate is administered orally to subjects and then tested for its effect for promoting hair growth. Seven week aged female mice (C57BL/6) are subjected to depilation at their back portions. Next, valproic acid is administered orally to mice of each test group everyday for 5 weeks. The control (mixed solution of distilled water, 1% methyl cellulose and 0.5% Tween 80™) and sodium valproate each are administered in a unit dose of 0.2 g/kg. After the administration, hair growth is observed at an interval of one week. After 5 weeks, hair weight after the depilation is measured.

[3] = system: hair growth at depilated back portions of mice (C57BL/6); assay: Hair growth and hair weight after skin application in depilated mice
Method: According to one embodiment, sodium valproate is administered to subjects via external application to the skin and then tested for its effect for promoting hair growth. Seven week aged female mice (C57BL/6) are subjected to depilation at their back portions. Next, 7.2% sodium valproate is applied to the depilated back portions of mice of each test group twice per day. As a control, a mixed solution of propylene glycol/ethanol/water (5:3:2) is used. After the skin application, hair growth is observed at an interval of one week. After 6 weeks, hair weight after the depilation is measured.

CCCC(CCC)C(=O)[O-].[Na+] [sodium valproate]
degree of hair growth as compared to the control (FIG. 1) ([1]; after 16 days, control = right side of back): hair growth is promoted
formation of new hair follicles (FIG. 1) ([1]; after 30 days): new hair follicles are formed
hair growth as compared to the control (FIG. 2) [2]: delays hair growth
hair weight (FIG. 3) ([2]; 0.2 g/kg everyday, after 5 weeks, control about 85 mg): 65 mg
hair growth as compared to the control (FIG. 4) ([3]; 7.2% skin application twice per day): promotes hair growth
hair weight (FIG. 5) ([3]; 7.2% skin application twice per day, after 6 weeks, control about 35 mg): ≥ 80 mg

CCCC(CCC)C(=O)O [valproic acid, 2-propylpentanoic acid]
hair growth as compared to the control (FIG. 2) [2]: inhibits hair growth
hair growth, summary statement ([3]; transdermal administration (subcutaneous injection or skin application)): promotes hair growth

Reference: patent US8952060B2, “Composition for preventing hair loss or for stimulating hair growth” (Amorepacific Corporation, priority 2009, dated 2015)
